Tests used:
[1] = biological target: T1, ScAA10 (CD; catalytic domain of ScLPMO10C) (Streptomyces coelicolor, UniProt Q9RJY2); test: fluorescence stopped-flow, single-turnover reduction of LPMO-Cu(II); format: biochemical; settings: reductant; 50 mM sodium phosphate pH 6.0, 25 °C, anaerobic, no polysaccharide; second-order rate constant only, no Km
T1 construct: gene celS2; N-terminal His35), SmLPMO10A signal peptide cleaved, E. coli periplasm, untagged, Cu(II)-loaded

[2] = biological target: T2, ScLPMO10C (ScLPMO10C^(MMH)) (Streptomyces coelicolor, UniProt Q9RJY2); test: as above; format: biochemical; settings: reductant; 50 mM sodium phosphate pH 6.0, 25 °C, anaerobic, no polysaccharide; second-order rate constant only, no Km
T2 construct: gene celS2; full-length mature AA10-linker-CBM2, native signal peptide replaced by SmLPMO10A signal peptide (cleaved; N-terminal His35), E. coli periplasm, untagged, Cu(II)-loaded
T2 sequence (Q9RJY2 entry or part of it): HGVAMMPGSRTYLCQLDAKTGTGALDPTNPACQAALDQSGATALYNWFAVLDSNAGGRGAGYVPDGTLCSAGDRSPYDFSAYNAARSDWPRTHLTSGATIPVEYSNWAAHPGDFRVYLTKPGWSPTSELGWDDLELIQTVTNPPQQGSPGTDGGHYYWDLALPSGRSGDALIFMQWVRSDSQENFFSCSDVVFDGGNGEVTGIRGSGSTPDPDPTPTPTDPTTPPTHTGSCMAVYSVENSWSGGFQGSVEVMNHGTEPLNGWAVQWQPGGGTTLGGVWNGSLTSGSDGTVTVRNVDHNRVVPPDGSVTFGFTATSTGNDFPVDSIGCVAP

T1 sequence (Q9RJY2 entry or part of it): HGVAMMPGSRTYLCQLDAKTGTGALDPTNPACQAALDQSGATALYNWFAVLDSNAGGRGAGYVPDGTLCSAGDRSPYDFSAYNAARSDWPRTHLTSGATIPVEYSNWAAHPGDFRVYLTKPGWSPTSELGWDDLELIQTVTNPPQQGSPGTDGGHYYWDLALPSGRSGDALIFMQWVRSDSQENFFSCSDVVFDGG

`O=C1O[C@H]([C@@H](O)CO)C(O)=C1O` [ascorbic acid] was tested, and the “k AscA” value [1] was “the two variants exhibited identical reduction rates” and the “k AscA” value [2] was “the two variants exhibited identical reduction rates”.

From PMC12703677, “Discovery of a Copper-Binding Carbohydrate-Binding Module Regulating the Activity of Lytic Polysaccharide Monooxygenases” (Journal of the American Chemical Society, 2025)
